Experimental data published in US10758517B2, “mPGES-1 inhibitor for the treatment of osteoarthritis pain” (Glenmark Pharmaceuticals S.A., priority 2017, dated 2020).
Marks after values point to notes of the source that are not given here.

System: LPS-induced PGE2 release
Assay: Ex vivo LPS-induced PGE2 release in whole blood, single dose crossover versus celecoxib (Example 1, Part 3)
Parameters: species or system human
Conditions: single oral dose 400 mg, fasted healthy subjects
Procedure: Part 2 was a single-dose, double-blind study in a single cohort of elderly subjects. Part 3 was an open-label, randomized, 2-period, single-dose, crossover study to compare effects of the highest tolerated Compound I dose and celecoxib on prostanoid metabolism in healthy adult subjects.
In Part 3, Compound I was administered at a dose of 1000 mg after fasting. All subjects received Compound I and all subjects received 400 mg celecoxib in a cross-over study design.
In Parts 1a and 3, whole blood samples were incubated and analyzed for lipopolysaccharide (LPS)-induced prostaglandin PGE2 release. In Part 3, urine samples were collected for analysis of prostanoid metabolites.
Summary statistics were presented for the PK, pharmacodynamic (PD) and safety data, as appropriate. PK parameters following single oral doses of Compound I were determined from the plasma concentrations of Compound I using non-compartmental procedures in WinNonlin Dose proportionality was assessed using a power model, with tmax analyzed using the Kruskal-Wallis test. The effect of food on PK was assessed at the 100 and 250 mg doses using a mixed effects model. The effect of age on PK was assessed for elderly (>65 years) versus non-elderly (<65 years) at the 250 mg dose level in Parts 1a and 2, using an analysis of variance (ANOVA) with age as a fixed effect. For PD analyses, percent decrease of ex vivo LPS-induced PGE2 release was calculated. For Part 3, urinary excretion of prostanoid metabolites was also evaluated. The data are presented as absolute, as well as creatinine normalized urinary biomarker amounts, along percent change from baseline over a definite time interval. The percent change from baseline in urinary biomarkers was assessed using an analysis of covariance (ANCOVA) model
Percent change in ex vivo LPS-induced PGE2 release in whole blood is the pharmacodynamic (PD) biomarker. The PGE2 levels in whole blood were estimated using the homogeneous time-resolved fluorescence method.
Concentrations below the limit of quantification were treated as ½ the lower limit of quantification for calculation.
Time points where unstimulated prostaglandin E2 (PGE2) concentration was more than 3 times greater than the mean unstimulated PGE2 and equal to or greater than ½ baseline value for an individual subject were not included in the calculation of % inhibition.

## Cc1ccc(-c2cc(C(F)(F)F)nn2-c2ccc(S(N)(=O)=O)cc2)cc1 [Celecoxib, celecoxib, reference compound]
  EAUC0-24 h, LS mean: 1421 % · h
  ETmax (time to reach maximum effect), Median: 6.00 h
  Epeak (maximum % inhibition), LS mean: 89.1%
N = 18
  EAUC0-336 h, LS mean: −10159^a % · h
